Measurements as given in publication PMC9967275, “Screening the Pathogen Box to Discover and Characterize New Cruzain and TbrCatL Inhibitors” (Pathogens, 2023).

What was measured:
[1] = target: cruzain (Trypanosoma cruzi, UniProt P25779); assay: biochemical; conditions: for Cruzain 0’ Inhibition / Cruzain 10’ Inhibition: sheet "Screening results"
In short: (§1)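 Recombinant enzymes assayed by Z-Phe-Arg-AMC cleavage at 25 °C, fluorescence 340/440 nm over 5–7 min, with 10 min or no enzyme–compound preincubation.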

[2] = target: T1, TbrCatL (Trypanosoma brucei rhodesiense, UniProt Q95PM0); assay: TbrCatL enzymatic inhibition assay (cleavage of fluorogenic substrate Z-FR-AMC); type: biochemical; conditions: for TbrCatL 0’ Inhibition / TbrCatL 10’ Inhibition: sheet "Screening results"
T1 construct: Conor Caffrey (University of California San Diego)
In short: as §1

[3] = 0’ (no pre-incubation), sheet Screening results
[4] = 10’ (pre-incubation), sheet Screening results
[5] = 0’ (pre-incubation time), Pathogen Box screening results
[6] = 10’ (pre-incubation time), Pathogen Box screening results
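Also: at 5 µM compound concentration.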

Sequence of cruzain (P25779 123-337 limits assumed): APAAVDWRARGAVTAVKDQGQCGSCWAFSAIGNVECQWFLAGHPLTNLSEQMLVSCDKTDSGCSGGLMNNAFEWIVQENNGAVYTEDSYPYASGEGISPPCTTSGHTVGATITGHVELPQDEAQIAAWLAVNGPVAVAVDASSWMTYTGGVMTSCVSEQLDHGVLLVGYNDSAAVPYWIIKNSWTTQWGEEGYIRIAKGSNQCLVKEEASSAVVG
T1 sequence (Q95PM0 entry or part of it): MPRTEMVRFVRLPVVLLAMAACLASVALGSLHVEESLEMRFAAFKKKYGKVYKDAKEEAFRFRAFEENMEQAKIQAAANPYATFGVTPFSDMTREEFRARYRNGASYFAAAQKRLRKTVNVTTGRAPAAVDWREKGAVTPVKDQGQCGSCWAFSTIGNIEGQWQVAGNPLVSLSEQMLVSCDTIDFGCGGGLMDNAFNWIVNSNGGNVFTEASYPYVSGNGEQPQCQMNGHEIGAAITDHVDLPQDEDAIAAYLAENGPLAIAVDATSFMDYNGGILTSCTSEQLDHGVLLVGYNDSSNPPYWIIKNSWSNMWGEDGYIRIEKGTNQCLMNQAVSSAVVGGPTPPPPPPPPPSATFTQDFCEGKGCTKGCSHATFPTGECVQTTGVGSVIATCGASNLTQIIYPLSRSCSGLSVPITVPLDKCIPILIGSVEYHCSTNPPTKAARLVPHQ

Compound	Cruzain Inhibition 0’ [1, 3]	Cruzain Inhibition 10’ [1, 4]	TbrCatL Inhibition 0’ [2, 3]	TbrCatL Inhibition 10’ [2, 4]	other results
CC(C)(C)OC(=O)N1CCN(c2nccc(-c3ccc(-c4ccc(Cl)cc4)s3)n2)CC1 [MMV688416]	18%	18%	22%	27%	–
CC(C)n1nc(-c2cc3c(Cl)cccc3[nH]2)c2c(N)ncnc21 [MMV688417]	–	–	–	–	Cruzain 0’ Inhibition ([1]; 0’ (pre-incubation time)): 5.6%; Cruzain 10’ Inhibition ([1]; 10’ (pre-incubation time)): -1.4%; TbrCatL 0’ Inhibition ([2]; 0’ (pre-incubation time)): -11%; TbrCatL 10’ Inhibition ([2]; 10’ (pre-incubation time)): -13%
CCCCN(CCCC)c1c(C#N)cc(S(=O)(=O)Nc2ccccc2)cc1C#N [MMV688467]	–	–	–	–	Cruzain 0’ Inhibition ([1]; 0’ (pre-incubation time)): -2.2%; Cruzain 10’ Inhibition ([1]; 10’ (pre-incubation time)): 1.8%; TbrCatL 0’ Inhibition ([2]; 0’ (pre-incubation time)): -4.5%; TbrCatL 10’ Inhibition ([2]; 10’ (pre-incubation time)): 8%
Nc1ncnc2n[nH]c(Cc3cccc4ccccc34)c12 [MMV688469]	–	–	–	–	Cruzain 0’ Inhibition ([1]; 0’ (pre-incubation time)): -9%; Cruzain 10’ Inhibition ([1]; 10’ (pre-incubation time)): 4.5%; TbrCatL 0’ Inhibition ([2]; 0’ (pre-incubation time)): -8%; TbrCatL 10’ Inhibition ([2]; 10’ (pre-incubation time)): -1.7%
CS(=O)(=O)N1CCC(CCn2nc(Cc3cccc4ccccc34)c3c(N)ncnc32)CC1 [MMV688470]	10%	11%	14%	9%	–
CC(C(=O)Nc1ccc2oc(-c3ccncc3)nc2c1)c1ccccc1 (stereo not shown) [MMV688471]	19%	15%	26%	20%	–
CC(Oc1cccc(Cl)c1)C(=O)Nc1ccc2oc(-c3ccncc3)nc2c1 (stereo not shown) [MMV688472]	17%	14%	13%	14%	–
COc1cc(C2=NCCN2)ccc1-n1cc(-c2cccc(C3=NCCN3)c2)nn1 [MMV688474]	–	–	–	–	Cruzain 0’ Inhibition ([1]; 0’ (pre-incubation time)): 2.4%; Cruzain 10’ Inhibition ([1]; 10’ (pre-incubation time)): 13%; TbrCatL 0’ Inhibition ([2]; 0’ (pre-incubation time)): 10%; TbrCatL 10’ Inhibition ([2]; 10’ (pre-incubation time)): 30%
CC(=O)NCC1CN(c2ccc(-c3ccc(CO)cc3)c(F)c2)C(=O)O1 (stereo not shown) [MMV688508]	-0.1%	-2%	-0.7%	-5%	–
O=C(OCc1ccccc1)N1CCC(c2cc(-c3ccncc3)c(-c3ccc(F)cc3)[nH]2)CC1 [MMV688509]	–	–	–	–	Cruzain 0’ Inhibition ([1]; 0’ (pre-incubation time)): -3.8%; Cruzain 10’ Inhibition ([1]; 10’ (pre-incubation time)): 3.8%; TbrCatL 0’ Inhibition ([2]; 0’ (pre-incubation time)): -13%; TbrCatL 10’ Inhibition ([2]; 10’ (pre-incubation time)): -13%
N=C(N)c1ccc(-c2cc(-c3ccccc3)on2)cc1 [MMV688514]	14%	13%	20%	-6.6%	–
CC(C)(C)C(=O)N(CCCCCCN1C[C@H](O)[C@@H](O)[C@H](O)[C@H]1CO)C1CCCCCC1 [MMV688543]	–	–	–	–	Cruzain Inhibition 0’ [1, 5]: -1.2%; Cruzain Inhibition 10’ [1, 6]: 7.5%; TbrCatL Inhibition 0’ [2, 5]: -7%; TbrCatL Inhibition 10’ [2, 6]: 1.7%
COc1ccc(C2=NCCN2)cc1-c1cn(-c2cccc(C3=NCCN3)c2)nn1 [MMV688547]	10%	13%	6%	4%	–
CC(C)(C)n1nc(-c2ccccc2)c2c(N)ncnc21 [MMV688548]	8%	10%	20%	12%	–
CCc1ccccc1-n1c(C)cn2c3c(=O)n(C(C(=O)OC)C(C)C)c(=O)n(C)c3nc12 (stereo not shown) [MMV688550]	–	–	–	–	Cruzain Inhibition 0’ [1, 5]: -4.3%; Cruzain Inhibition 10’ [1, 6]: 3.2%; TbrCatL Inhibition 0’ [2, 5]: -16%; TbrCatL Inhibition 10’ [2, 6]: 0.4%
Cc1nn(C(=O)Nc2cccc(C(F)(F)F)c2)c(C)c1Sc1ncccn1 [MMV688552]	–	–	–	–	Cruzain Inhibition 0’ [1, 5]: 2.3%; Cruzain Inhibition 10’ [1, 6]: 0.1%; TbrCatL Inhibition 0’ [2, 5]: -0.1%; TbrCatL Inhibition 10’ [2, 6]: 5%
O=C(NCc1ccoc1)N1CCN(Cc2ccc3c(c2)OCO3)CC1 [MMV688553]	-7%	0.9%	-1.2%	-6.4%	–
CNc1snc(C)c1C(=O)NCCOc1ccc(OC)cc1 [MMV688554]	-8%	-4.6%	-7%	-8%	–
O=C(NCc1ccco1)N1CCN(Cc2ccc(Cl)s2)CC1 [MMV688555]	-0.7%	0.5%	6%	0.9%	–
NCC(c1cccs1)S(=O)(=O)c1ccccc1 (stereo not shown) [MMV688557]	–	–	–	–	Cruzain Inhibition 0’ [1, 5]: 2.3%; Cruzain Inhibition 10’ [1, 6]: 0.1%; TbrCatL Inhibition 0’ [2, 5]: -0.6%; TbrCatL Inhibition 10’ [2, 6]: 1.2%
CN1CCC(c2cc(-c3ccncc3)c(-c3ccc(F)cc3)[nH]2)CC1 [MMV688703]	–	–	–	–	Cruzain 0’ Inhibition ([1]; 0’ (pre-incubation time)): 3.7%; Cruzain 10’ Inhibition ([1]; 10’ (pre-incubation time)): 1.9%; TbrCatL 0’ Inhibition ([2]; 0’ (pre-incubation time)): 6%; TbrCatL 10’ Inhibition ([2]; 10’ (pre-incubation time)): 3.6%
Cc1cc2nc(NC(=O)C(C)(C)C)nc(Cl)c2n1Cc1ccc(Cl)cc1 [MMV688704]	11%	10%	16%	16%	–

Compound	Cruzain Inhibition 0’ [1, 3]	Cruzain Inhibition 10’ [1, 4]	TbrCatL Inhibition 0’ [2, 3]	TbrCatL Inhibition 10’ [2, 4]	other results
CO/N=C(/C(=O)OC)c1ccccc1CO/N=C(/C)c1cccc(C(F)(F)F)c1 [MMV688754]	–	–	–	–	Cruzain Inhibition 0’ [1, 5]: 0.9%; Cruzain Inhibition 10’ [1, 6]: 3.5%; TbrCatL Inhibition 0’ [2, 5]: -4%; TbrCatL Inhibition 10’ [2, 6]: -1.2%
O=[N+]([O-])c1cn2c(n1)OC[C@@H](OCc1ccc(OC(F)(F)F)cc1)C2 [MMV688755]	–	–	–	–	Cruzain Inhibition 0’ [1, 5]: 3%; Cruzain Inhibition 10’ [1, 6]: 6.6%; TbrCatL Inhibition 0’ [2, 5]: -0.5%; TbrCatL Inhibition 10’ [2, 6]: 4%
CC(=O)NC[C@H]1CN(c2ccc(N3CCSCC3)c(F)c2)C(=O)O1 [MMV688756]	14%	11%	10%	7%	–
CS(=O)(=O)c1ccc(C(=O)N(CC2CCCO2)c2nc3ccccc3s2)cc1[N+](=O)[O-] (stereo not shown) [MMV688761]	-0.3%	5.7%	-0.9%	1.2%	–
c1ccc(-c2[nH]c3ccccc3c2C(c2ccccn2)N2CCCC2)cc1 (stereo not shown) [MMV688762]	3.2%	1%	3.2%	1.8%	–
CNc1nnc(Sc2cnn(-c3ccccc3)c(=O)c2Cl)s1 [MMV688763]	6%	9%	7.5%	1.7%	–
COc1ccc(-c2onc(C(F)(F)F)c2-c2ccc(Cl)cc2)c(O)c1 [MMV688766]	–	–	–	–	Cruzain 0’ Inhibition ([1]; 0’ (pre-incubation time)): 1%; Cruzain 10’ Inhibition ([1]; 10’ (pre-incubation time)): -2.5%; TbrCatL 0’ Inhibition ([2]; 0’ (pre-incubation time)): 0%; TbrCatL 10’ Inhibition ([2]; 10’ (pre-incubation time)): -5%
Cc1[nH]c2ccccc2c1C(c1cccs1)N1CCN(C)CC1 (stereo not shown) [MMV688768]	2.7%	9%	0.9%	2.4%	–
Cc1ccccc1C(=O)N1NC(=Nc2ccccc2)SC1(C)C [MMV688771]	–	–	–	–	Cruzain 0’ Inhibition ([1]; 0’ (pre-incubation time)): 29%; Cruzain 10’ Inhibition ([1]; 10’ (pre-incubation time)): 8%; TbrCatL 0’ Inhibition ([2]; 0’ (pre-incubation time)): -5%; TbrCatL 10’ Inhibition ([2]; 10’ (pre-incubation time)): 0.3%
O=C(Cn1ccnc1[N+](=O)[O-])NCc1ccccc1 [MMV688773]	19%	4%	4.3%	3.7%	–
CC[C@@H]([C@H](C)O)n1ncn(-c2ccc(N3CCN(c4ccc(OC[C@@H]5CO[C@@](Cn6cncn6)(c6ccc(F)cc6F)C5)cc4)CC3)cc2)c1=O [MMV688774]	9%	10%	3.6%	8%	–
Cc1cccnc1NC(=O)c1cccc(OCc2c(C)noc2C)c1 [MMV688793]	16%	10%	14%	10%	–
O=C(NCCc1ccn(-c2ccccc2)n1)C1CCCCC1 [MMV688795]	–	–	–	–	Cruzain 0’ Inhibition ([1]; 0’ (pre-incubation time)): 3.2%; Cruzain 10’ Inhibition ([1]; 10’ (pre-incubation time)): 4%; TbrCatL 0’ Inhibition ([2]; 0’ (pre-incubation time)): 5%; TbrCatL 10’ Inhibition ([2]; 10’ (pre-incubation time)): 5.4%
O=C(NCc1nnc2n1CCCCC2)c1ccc(-c2ccc(F)cc2)o1 [MMV688796]	15%	7%	7%	-2.4%	–
CC1CCCCN1C(=O)NCCc1coc(-c2ccc(F)cc2)n1 (stereo not shown) [MMV688797]	15%	10%	16%	15%	–
CS(=O)(=O)c1ccccc1C(=O)N(Cc1ccccc1)c1ccccc1 [MMV688798]	13%	1.2%	1.5%	-1.9%	–
COc1ccc2nccc(NC(=O)C3CCN(CCc4ccc(Cl)cc4)CC3)c2n1 [MMV688844]	–	–	–	–	Cruzain 0’ Inhibition ([1]; 0’ (pre-incubation time)): 1.4%; Cruzain 10’ Inhibition ([1]; 10’ (pre-incubation time)): -1.1%; TbrCatL 0’ Inhibition ([2]; 0’ (pre-incubation time)): 4%; TbrCatL 10’ Inhibition ([2]; 10’ (pre-incubation time)): -1.5%
O=C(N[C@H](Cc1ccccc1)C(=O)Nc1ccccc1N1CCOCC1)c1cccs1 [MMV688845]	–	–	–	–	Cruzain 0’ Inhibition ([1]; 0’ (pre-incubation time)): 1%; Cruzain 10’ Inhibition ([1]; 10’ (pre-incubation time)): 4.5%; TbrCatL 0’ Inhibition ([2]; 0’ (pre-incubation time)): -0.3%; TbrCatL 10’ Inhibition ([2]; 10’ (pre-incubation time)): 2.3%
Cc1ccccc1CN1CCC(O)(c2ccc(Cl)c(C(F)(F)F)c2)CC1 [MMV688846]	10%	3%	2.5%	-17%	–
CC(C)(C)n1nc(Cc2ccc(F)c(Cl)c2)c2c(N)ncnc21 [MMV688852]	6%	0.5%	-2.7%	-13%	–
CCOc1ccc2cc(-c3nn(C(C)(C)C)c(N)c3C(N)=O)cnc2c1 [MMV688853]	5.4%	4%	7%	-4%	–
